Assay results published in ChEMBL document CHEMBL1201862, “PubChem BioAssay data set” (2004).
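96-well plates; 48 h exposure; 5 concentrations. Endpoints by linear interpolation between flanking doses. Not reached: highest tested concentration assigned. GI50: concentration for 50% inhibition of growth.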 Active and inactive are the calls of the source. Rule as the data show it: active = GI50 up to about 1.1 µM and inactive = higher.

Assays:
Assay in all cases: DTP human tumour cell line panel, 48 h
HCC 2998 = test system: HCC 2998
RPMI-8226 = test system: RPMI-8226
A549 = test system: A549
SNB-78 = test system: SNB-78
SK-MEL-5 = test system: SK-MEL-5
SK-MEL-2 = test system: SK-MEL-2
SNB-75 = test system: SNB-75
RXF 631 = test system: RXF 631
SF-295 = test system: SF-295
DMS-273 = test system: DMS-273
EKVX = test system: EKVX
IGROV-1 = test system: IGROV-1
SK-OV-3 = test system: SK-OV-3
UACC-257 = test system: UACC-257
SF-539 = test system: SF-539
NCI-H226 = test system: NCI-H226
M19-MEL = test system: M19-MEL
OVCAR-8 = test system: OVCAR-8
OVCAR-4 = test system: OVCAR-4
XF498 = test system: XF498
HT-29 = test system: HT-29
OVCAR-5 = test system: OVCAR-5
786-0 = test system: 786-0
NCI-H23 = test system: NCI-H23
LOX IMVI = test system: LOX IMVI
HOP-18 = test system: HOP-18
SN12C = test system: SN12C
SR = test system: SR
ACHN = test system: ACHN
HCT-116 = test system: HCT-116
CCRF-CEM = test system: CCRF-CEM
SF-268 = test system: SF-268
SK-MEL-28 = test system: SK-MEL-28
M14 = test system: M14
COLO 205 = test system: COLO 205
Malme-3M = test system: Malme-3M
KM12 = test system: KM12
MOLT-4 = test system: MOLT-4
NCI-H460 = test system: NCI-H460
A498 = test system: A498
UO-31 = test system: UO-31
HOP-92 = test system: HOP-92
UACC-62 = test system: UACC-62
KM-20L2 = test system: KM-20L2
K562 = test system: K562
HOP-62 = test system: HOP-62
HL-60 = test system: HL-60
DMS-114 = test system: DMS-114
TK-10 = test system: TK-10
OVCAR-3 = test system: OVCAR-3
U-251 = test system: U-251
RXF 393 = test system: RXF 393
HCT-15 = test system: HCT-15
DLD-1 = test system: DLD-1
LXFL 529 = test system: LXFL 529
SW-620 = test system: SW-620
NCI-H522 = test system: NCI-H522
SNB-19 = test system: SNB-19
CAKI-1 = test system: CAKI-1

`O=S(=O)(N/N=C/c1ccc(/C=N/NS(=O)(=O)c2ccccc2)cc1)c1ccccc1` was tested, and the GI50 (HCC 2998) was > 100 µM (inactive), the GI50 (RPMI-8226) was 45 µM (inactive) and the GI50 (A549) was 77.6 µM (inactive). The GI50 (SNB-78) was 61.8 µM (inactive), the GI50 (SK-MEL-5) was 39.4 µM (inactive) and the GI50 (SK-MEL-2) was 43.5 µM (inactive). For the same molecule, the GI50 (SNB-75) was 70.3 µM (inactive), the GI50 (RXF 631) was 36.4 µM (inactive) and the GI50 (SF-295) was 15.5 µM (inactive). The GI50 (DMS-273) was 46.8 µM (inactive), the GI50 (EKVX) was 72.9 µM (inactive) and the GI50 (IGROV-1) was 37.9 µM (inactive). The GI50 (SK-OV-3) was > 100 µM (inactive), the GI50 (UACC-257) was 53.2 µM (inactive) and the GI50 (SF-539) was 29 µM (inactive). For the same molecule, the GI50 (NCI-H226) was > 100 µM (inactive), the GI50 (M19-MEL) was 50.6 µM (inactive) and the GI50 (OVCAR-8) was 42 µM (inactive). The GI50 (OVCAR-4) was 63.7 µM (inactive), the GI50 (XF498) was 68.9 µM (inactive) and the GI50 (HT-29) was 59.6 µM (inactive). For the same molecule, the GI50 (OVCAR-5) was 4.36 µM (inactive), the GI50 (786-0) was 50.6 µM (inactive) and the GI50 (NCI-H23) was 35.2 µM (inactive). For the same molecule, the GI50 (LOX IMVI) was 16 µM (inactive), the GI50 (HOP-18) was 84.3 µM (inactive) and the GI50 (SN12C) was 42.6 µM (inactive). For the same molecule, the GI50 (SR) was 29 µM (inactive), the GI50 (ACHN) was 55.8 µM (inactive) and the GI50 (HCT-116) was 57.3 µM (inactive). For the same molecule, the GI50 (CCRF-CEM) was 30.3 µM (inactive), the GI50 (SF-268) was > 100 µM (inactive) and the GI50 (SK-MEL-28) was 81.7 µM (inactive). The GI50 (M14) was > 100 µM (inactive), the GI50 (COLO 205) was 21.4 µM (inactive) and the GI50 (Malme-3M) was > 100 µM (inactive). For the same molecule, the GI50 (KM12) was 35.8 µM (inactive), the GI50 (MOLT-4) was 21.5 µM (inactive) and the GI50 (NCI-H460) was 49.9 µM (inactive). The GI50 (A498) was 68.5 µM (inactive), the GI50 (UO-31) was 63.2 µM (inactive) and the GI50 (HOP-92) was 31.8 µM (inactive). For the same molecule, the GI50 (UACC-62) was 24.9 µM (inactive), the GI50 (KM-20L2) was > 100 µM (inactive) and the GI50 (K562) was 29.4 µM (inactive). The GI50 (HOP-62) was 44.9 µM (inactive), the GI50 (HL-60) was 23.2 µM (inactive) and the GI50 (DMS-114) was 54.8 µM (inactive). For the same molecule, the GI50 (TK-10) was 60.7 µM (inactive), the GI50 (OVCAR-3) was 30.7 µM (inactive) and the GI50 (U-251) was 41 µM (inactive). For the same molecule, the GI50 (RXF 393) was 27.7 µM (inactive) and the GI50 (HCT-15) was 44.1 µM.
`[N-]=[N+]=Nc1nnc(CCCCc2nnc(N=[N+]=[N-])o2)o1` was tested, and the GI50 (HCC 2998) was > 100 µM (inactive), the GI50 (A549) was > 100 µM (inactive) and the GI50 (SNB-78) was > 100 µM (inactive). The GI50 (SK-MEL-5) was > 100 µM (inactive), the GI50 (SK-MEL-2) was > 100 µM (inactive) and the GI50 (SNB-75) was > 100 µM (inactive). For the same molecule, the GI50 (RXF 631) was 25.4 µM (inactive), the GI50 (DLD-1) was > 100 µM (inactive) and the GI50 (SF-295) was > 100 µM (inactive). The GI50 (EKVX) was > 100 µM (inactive), the GI50 (SK-OV-3) was > 100 µM (inactive) and the GI50 (UACC-257) was > 100 µM (inactive). For the same molecule, the GI50 (SF-539) was > 100 µM (inactive), the GI50 (NCI-H226) was > 100 µM (inactive) and the GI50 (M19-MEL) was > 100 µM (inactive). For the same molecule, the GI50 (LXFL 529) was > 100 µM (inactive), the GI50 (OVCAR-8) was > 100 µM (inactive) and the GI50 (OVCAR-4) was > 100 µM (inactive). For the same molecule, the GI50 (XF498) was > 100 µM (inactive), the GI50 (HT-29) was > 100 µM (inactive) and the GI50 (OVCAR-5) was > 100 µM (inactive). For the same molecule, the GI50 (786-0) was > 100 µM (inactive), the GI50 (NCI-H23) was > 100 µM (inactive) and the GI50 (SW-620) was > 100 µM (inactive). The GI50 (LOX IMVI) was > 100 µM (inactive), the GI50 (HOP-18) was > 100 µM (inactive) and the GI50 (SN12C) was > 100 µM (inactive). The GI50 (ACHN) was > 100 µM (inactive), the GI50 (HCT-116) was > 100 µM (inactive) and the GI50 (CCRF-CEM) was > 100 µM (inactive). For the same molecule, the GI50 (SF-268) was > 100 µM (inactive), the GI50 (SK-MEL-28) was > 100 µM (inactive) and the GI50 (M14) was > 100 µM (inactive). The GI50 (COLO 205) was > 100 µM (inactive), the GI50 (Malme-3M) was > 100 µM (inactive) and the GI50 (KM12) was 91.4 µM (inactive). The GI50 (MOLT-4) was > 100 µM (inactive), the GI50 (NCI-H460) was > 100 µM (inactive) and the GI50 (A498) was > 100 µM (inactive). The GI50 (NCI-H522) was > 100 µM (inactive), the GI50 (UO-31) was > 100 µM (inactive) and the GI50 (HOP-92) was > 100 µM (inactive). For the same molecule, the GI50 (UACC-62) was > 100 µM (inactive), the GI50 (KM-20L2) was > 100 µM (inactive) and the GI50 (K562) was > 100 µM (inactive). The GI50 (HOP-62) was > 100 µM (inactive), the GI50 (DMS-114) was > 100 µM (inactive) and the GI50 (TK-10) was > 100 µM (inactive). For the same molecule, the GI50 (OVCAR-3) was > 100 µM (inactive), the GI50 (U-251) was > 100 µM (inactive) and the GI50 (SNB-19) was > 100 µM (inactive). The GI50 (RXF 393) was > 100 µM (inactive) and the GI50 (HCT-15) was greater than 100 µM.
With `COC(=O)C(=O)C(C(=O)C(=O)Nc1cc([N+](=O)[O-])ccc1[N+](=O)[O-])c1nc2ccc(C(=O)c3ccccc3)cc2nc1O` (configuration not stated) the GI50 (HCC 2998) was > 100 µM (inactive), the GI50 (RPMI-8226) was 20.1 µM (inactive) and the GI50 (A549) was 43.8 µM (inactive). For the same molecule, the GI50 (SNB-78) was 19.2 µM (inactive), the GI50 (SK-MEL-5) was 18.3 µM (inactive) and the GI50 (SK-MEL-2) was 37.2 µM (inactive). The GI50 (RXF 631) was 49.3 µM (inactive), the GI50 (DLD-1) was 52.2 µM (inactive) and the GI50 (SF-295) was 31 µM (inactive). The GI50 (DMS-273) was 22.4 µM (inactive), the GI50 (EKVX) was 39.3 µM (inactive) and the GI50 (IGROV-1) was 33.6 µM (inactive). The GI50 (SK-OV-3) was 34.2 µM (inactive), the GI50 (UACC-257) was 34.3 µM (inactive) and the GI50 (SF-539) was 35.2 µM (inactive). For the same molecule, the GI50 (NCI-H226) was 25.4 µM (inactive), the GI50 (M19-MEL) was 28.4 µM (inactive) and the GI50 (LXFL 529) was 23.4 µM (inactive). The GI50 (OVCAR-8) was 26.9 µM (inactive), the GI50 (OVCAR-4) was 49.9 µM (inactive) and the GI50 (XF498) was 3.36 µM (inactive). The GI50 (HT-29) was 34 µM (inactive), the GI50 (OVCAR-5) was 20.7 µM (inactive) and the GI50 (786-0) was 95.3 µM (inactive). The GI50 (CAKI-1) was 19.3 µM (inactive), the GI50 (NCI-H23) was 25.2 µM (inactive) and the GI50 (SW-620) was 28.4 µM (inactive). The GI50 (LOX IMVI) was 19.9 µM (inactive), the GI50 (HOP-18) was 8.02 µM (inactive) and the GI50 (SN12C) was 44.2 µM (inactive). The GI50 (SR) was 21.7 µM (inactive), the GI50 (ACHN) was 34.8 µM (inactive) and the GI50 (HCT-116) was 40.6 µM (inactive). For the same molecule, the GI50 (CCRF-CEM) was 25.2 µM (inactive), the GI50 (SF-268) was 47.6 µM (inactive) and the GI50 (M14) was 33.1 µM (inactive). The GI50 (COLO 205) was 32.6 µM (inactive), the GI50 (Malme-3M) was 61.4 µM (inactive) and the GI50 (KM12) was 28.9 µM (inactive). For the same molecule, the GI50 (MOLT-4) was 18.1 µM (inactive), the GI50 (NCI-H460) was 35.4 µM (inactive) and the GI50 (A498) was 20.9 µM (inactive). For the same molecule, the GI50 (NCI-H522) was 26.7 µM (inactive), the GI50 (UO-31) was 17.4 µM (inactive) and the GI50 (K562) was 21.3 µM (inactive). For the same molecule, the GI50 (HOP-62) was 44.5 µM (inactive), the GI50 (DMS-114) was 23.2 µM (inactive) and the GI50 (OVCAR-3) was 39.2 µM (inactive). The GI50 (U-251) was 33.4 µM (inactive), the GI50 (SNB-19) was 50.4 µM (inactive) and the GI50 (HCT-15) was 56.5 µM.
